Test system: Rho kinase (ROK, ROCK)
Experiment: Rho kinase inhibitory activity (ROK activity)
Format: biochemical
Design: key: +: active; ++: more active; +++: very active
Details: assays conducted at 1-100 μM

O=C(Cc1ccc(Cl)cc1)Nc1cncc(-c2ccncc2)c1 [Example 1, N-[3,4′]Bipyridinyl-5-yl-2-(4-chloro-phenyl)-acetamide]
ROK activity: +
ROK activity (listed as N-[3,4′]Bipyridinyl-5-yl-2-(4-chloro-phenyl)-acetamide): ++

Fc1cc(CNc2cccc(-c3ccncc3)c2)ccc1Cl [Example 2, (4-Chloro-3-fluoro-benzyl)-(3-pyridin-4-yl-phenyl)-amine]
ROK activity: +++

Fc1cc(CNc2cncc(-c3ccncc3F)c2)ccc1Cl [Example 3, (4-Chloro-3-fluoro-benzyl)-(3′-fluoro-[3,4′]bipyridinyl-5-yl)-amine]
ROK activity: +++

Fc1cc(CNc2cncc(-c3ccnc(Cl)c3)c2)ccc1Cl [Example 4, (2′-Chloro-[3,4′]bipyridinyl-5-yl)-(4-chloro-3-fluoro-benzyl)-amine]
ROK activity: +

Fc1cc(CNc2cncc(-c3ccncc3Cl)c2)ccc1Cl [Example 5, (3′-Chloro-[3,4′]bipyridinyl-5-yl)-(4-chloro-3-fluoro-benzyl)-amine]
ROK activity: +++

Fc1cc(CNc2cncc(-c3ccnc(Cl)c3Cl)c2)ccc1Cl [Example 6, (4-Chloro-3-fluoro-benzyl)-(2′,3′-dichloro-[3,4′]bipyridinyl-5-yl)-amine]
ROK activity: +

Fc1cc(CNc2cncc(-c3cccc4ncccc34)c2)ccc1Cl [Example 7, (4-Chloro-3-fluoro-benzyl)-(5-quinolin-5-yl-pyridin-3-yl)-amine]
ROK activity: ++

Fc1cc(CNc2cncc(-c3ccnc(Cl)c3F)c2)ccc1Cl [Example 8, (4-Chloro-3-fluoro-benzyl)-(2′-chloro-3′-fluoro-[3,4′]bipyridinyl-5-yl)-amine]
ROK activity: +

c1ccc(CNc2cncc(-c3ccncc3)c2)cc1 [Example 9, Benzyl-[3,4′]bipyridinyl-5-yl-amine]
ROK activity: +++

Clc1cccc(Cl)c1CNc1cncc(-c2ccncc2)c1 [Example 10, [3,4′]Bipyridinyl-5-yl-(2,6-dichloro-benzyl)-amine]
ROK activity: +

FC(F)(F)c1cc(Cl)ccc1CNc1cncc(-c2ccncc2)c1 [Example 11, [3,4′]Bipyridinyl-5-yl-(4-chloro-2-trifluoromethyl-benzyl)-amine]
ROK activity: ++

CC(O)CNc1cc(-c2cncc(NCc3ccc(Cl)cc3)c2)ccn1 (centres unmarked) [Example 12, 1-[5-(4-Chloro-benzylamino)-[3,4′]bipyridinyl-2′-ylamino]-propan-2-ol]
ROK activity: +

CC(C)(C)OC(=O)N1CCCC(CNc2cncc(-c3ccncc3)c2)C1 (centres unmarked) [Example 13, 3-([3,4′]Bipyridinyl-5-ylaminomethyl)-piperidine-1-carboxylic acid tert-butyl ester]
ROK activity: +

CC(C)(C)OC(=O)N1CCC(CNc2cncc(-c3ccncc3)c2)CC1 [Example 14, 4-([3,4′]Bipyridinyl-5-ylaminomethyl)-piperidine-1-carboxylic acid tert-butyl ester]
ROK activity: +

CC(C)(C)OC(=O)N1CCC(Nc2cncc(-c3ccncc3)c2)CC1 [Example 15, 4-([3,4′]Bipyridinyl-5-ylamino)-piperidine-1-carboxylic acid tert-butyl ester]
ROK activity: +

c1cc(-c2cncc(NCC3CCCNC3)c2)ccn1 (centres unmarked) [Example 16, [3,4′]Bipyridinyl-5-yl-piperidin-3-ylmethyl-amine]
ROK activity: ++

FC(F)(F)c1cccc(CNc2cncc(-c3ccncc3)c2)c1 [Example 17, [3,4′]Bipyridinyl-5-yl-(3-trifluoromethyl-benzyl)-amine]
ROK activity: ++

FC(F)(F)c1ccc(CNc2cncc(-c3ccncc3)c2)cc1 [Example 18, [3,4′]Bipyridinyl-5-yl-(4-trifluoromethyl-benzyl)-amine]
ROK activity: +++

Fc1cc(Cl)ccc1CNc1cncc(-c2ccncc2)c1 [Example 19, [3,4′]Bipyridinyl-5-yl-(4-chloro-2-fluoro-benzyl)-amine]
ROK activity: +++

O=C(Nc1cncc(-c2ccncc2)c1)c1ccc(Cl)cc1 [Example 20, N-[3,4′]Bipyridinyl-5-yl-4-chloro-benzamide]
ROK activity: +

O=S(=O)(Nc1cncc(-c2ccncc2)c1)c1ccc(Cl)cc1 [Example 21, N-[3,4′]Bipyridinyl-5-yl-4-chloro-benzenesulfonamide]
ROK activity: +

Fc1ccc(CNc2cncc(-c3ccncc3)c2)c(F)c1 [Example 22, [3,4′]Bipyridinyl-5-yl-(2,4-difluoro-benzyl)-amine]
ROK activity: +++
